Experimental data from patent publication US11780839B2, “Compounds for treating Huntington's disease” (PTC THERAPEUTICS, INC., priority 2018, dated 2023).

System: Endogenous Huntingtin Protein
Experiment: Endogenous Huntingtin Protein Assay (ELISA-based Meso Scale Discovery electrochemiluminescence)
Type: cell-based
Settings: MSD electrochemiluminescence, Table 1
Summary of the method: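 Sandwich MSD electrochemiluminescence immunoassay. Capture used MW1 (expanded polyglutamine) or MAB2166 antibody coated at 1 μg/mL overnight at 4 °C. Samples were bound overnight at 4 °C, then a rabbit monoclonal detection antibody and SULFO-TAG anti-rabbit, each at 0.25 μg/mL, were applied for 1 h at room temperature.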

SMILES	IC50
CC1(C)CC(Nc2ncc(-c3ccc(-c4cn5ccccc5n4)cc3O)nn2)CC(C)(C)N1 [Cpd 360, 5-(imidazo[1,2-a]pyridin-2-yl)-2-{3-[(2,2,6,6-tetramethylpiperidin-4-yl)amino]-1,2,4-triazin-6-yl}phenol]	0.1 to 0.5 µM
CN1CCC2(CC1)CN(c1ncc(-c3ccc(-c4cnn(C)n4)cc3O)nn1)C2 [Cpd 242, 2-[3-(7-methyl-2,7-diazaspiro[3.5]nonan-2-yl)-1,2,4-triazin-6-yl]-5-(2-methyl-2H-1,2,3-triazol-4-yl)phenol]	≤ 0.1 µM
CN(C)[C@@H]1CC[C@@H]2CN(c3ncc(-c4ccc(-c5cn[nH]c5)cc4O)nn3)C[C@@H]21 [Cpd 162, 2-{3-[(3aR,4R,6aS)-4-(dimethylamino)hexahydrocyclopenta[c]pyrrol-2(1H)-yl]-1,2,4-triazin-6-yl}-5-(1H-pyrazol-4-yl)phenol]	0.1 to 0.5 µM
CC(C)NC1CCN(c2ncc(-c3ccc(-c4cn5ccnc5cn4)cc3O)nn2)C1 (centres unmarked) [Cpd 283, 5-(imidazo[1,2-a]pyrazin-6-yl)-2-(3-{3-[(propan-2-yl)amino]pyrrolidin-1-yl}-1,2,4-triazin-6-yl)phenol]	1 to 3 µM
[2H]C([2H])([2H])n1cc(-c2ccc(-c3cnc(NC4CC(C)(C)NC(C)(C)C4)nn3)c(O)c2)cn1 [Cpd 373, 5-[1-(^2H3)methyl-1H-pyrazol-4-yl]-2-{3-[(2,2,6,6-tetramethylpiperidin-4-yl)amino]-1,2,4-triazin-6-yl}phenol]	≤ 0.1 µM
CN(c1ncc(-c2ccc(-c3ccc(Cl)nn3)cc2O)nn1)C1CC(C)(C)NC(C)(C)C1 [Cpd 123, 5-(6-chloropyridazin-3-yl)-2-{3-[methyl(2,2,6,6-tetramethylpiperidin-4-yl)amino]-1,2,4-triazin-6-yl}phenol]	≤ 0.1 µM
CN(c1ncc(-c2ccc(-c3cc4cn[nH]c4cn3)cc2O)nn1)C1CC(C)(C)NC(C)(C)C1 [Cpd 184, 2-{3-[methyl(2,2,6,6-tetramethylpiperidin-4-yl)amino]-1,2,4-triazin-6-yl}-5-(1H-pyrazolo[3,4-c]pyridin-5-yl)phenol]	≤ 0.1 µM
CC1(C)C[C@H](Nc2ncc(-c3ccc(-c4ncco4)cc3O)nn2)[C@H](F)C(C)(C)N1 [Cpd 288, 2-(3-{[(3S,4S)-3-fluoro-2,2,6,6-tetramethylpiperidin-4-yl]amino}-1,2,4-triazin-6-yl)-5-(1,3-oxazol-2-yl)phenol]	≤ 0.1 µM
COc1ncnc(-c2ccc(-c3cnc(N(C)C4CC(C)(C)NC(C)(C)C4)nn3)c(O)c2)n1 [Cpd 88, 5-(4-methoxy-1,3,5-triazin-2-yl)-2-{3-[methyl(2,2,6,6-tetramethylpiperidin-4-yl)amino]-1,2,4-triazin-6-yl}phenol]	≤ 0.1 µM
CN(c1ncc(-c2ccc(-c3ccc4nnnn4n3)cc2O)nn1)C1CC(C)(C)NC(C)(C)C1 [Cpd 178, 2-{3-[methyl(2,2,6,6-tetramethylpiperidin-4-yl)amino]-1,2,4-triazin-6-yl}-5-(tetrazolo[1,5-b]pyridazin-6-yl)phenol]	≤ 0.1 µM
Cc1cn(-c2ccc(-c3cnc(N[C@H]4CC(C)(C)NC(C)(C)[C@H]4F)nn3)c(O)c2)cn1 [Cpd 239, 2-{3-{[(3S,4S)-3-fluoro-2,2,6,6-tetramethylpiperidin-4-yl]amino}-1,2,4-triazin-6-yl)-5-(4-methyl-1H-imidazol-1-yl)phenol]	≤ 0.1 µM
CC1(C)CC(Nc2ncc(-c3ccc(-c4cn[nH]c4)cc3O)nn2)CC(C)(C)N1 [Cpd 13, 5-(1H-pyrazol-4-yl)-2-{3-[(2,2,6,6-tetramethylpiperidin-4-yl)amino]-1,2,4-triazin-6-yl}phenol]	≤ 0.1 µM
CN(c1ncc(-c2ccc(-c3ccc4c(c3)ncn4C)cc2O)nn1)C1CC(C)(C)NC(C)(C)C1 [Cpd 285, 5-(1-methyl-1H-benzimidazol-5-yl)-2-{3-[methyl(2,2,6,6-tetramethylpiperidin-4-yl)amino]-1,2,4-triazin-6-yl}phenol]	≤ 0.1 µM
Cc1ccnc(-c2ccc(-c3cnc(N(C)C4CC(C)(C)NC(C)(C)C4)nn3)c(O)c2)n1 [Cpd 129, 5-(4-methylpyrimidin-2-yl)-2-{3-[methyl(2,2,6,6-tetramethylpiperidin-4-yl)amino]-1,2,4-triazin-6-yl}phenol]	0.1 to 0.5 µM
